{
  "source": "patent US20260297571A1",
  "about": "“METHODS FOR DECREASING NEURONAL DEATH, INFLAMMATION, AND DEGENERATION” (The Johns Hopkins University, priority 2023, published 2026)",
  "key": {"[1]": {"system": "poly-GR expressing neurons", "assay": "Cell survival assay, GR50 expressing i^3Neurons", "type": "cell-based, human", "protocol": "(§1) Cell survival assay. I'Neurons were infected with lentivirus to transduce GR50, PR50, BFP or GFP expression in the cells on day 5, day 7, day 9 or day 11 depending on the experimental timeline. For inducible DPRs, the virus was added to neurons on differentiation day 6. The expression was initiated by adding Dox to the differentiation medium (induction day 1). To validate the effect of the drugs on neuron survival, DPR was transduced for 7 days. i^3Neurons were treated with 5 μM ASOs for 7 days or 2.5 μM ISP (Sigma, Cat. No. 5343390001) or 3.7 μM DJ001 (Sigma, Cat. No. SML2787) for 3 days before harvesting. To examine the effect of the drugs on other cellular phenotypes, DPR was transduced for 3 days. 2.5 μM ISP or 3.7 μM DJ001 was added to the culture medium on the same day, followed by FYVE reporter transduction 1 day later.\n(§2) To measure cell survival, bright-field images were captured on day 14 using a Nikon TS-2 microscope. At least 4 images were taken at 10× object for each replica. At least 2 replicas were included for each batch. All experiments were performed at least twice. To examine dead neurons, PI (Thermo Fisher, Cat. No. P1304MP) dye was added to the culture medium 30 min before harvesting. Images of bright field and Cy3 channel were acquired, followed by quantifying the surviving neurons and PI^+ signals blindly."}, "hematopoietic stem cell": {"system": "hematopoietic stem cell", "conditions": "in vitro and in the mouse model; cited from earlier work"}, "[2]": {"system": "poly-PR expressing neurons", "assay": "Cell survival assay, PR50 expressing i^3Neurons", "type": "cell-based, human", "protocol": "as §1, §2"}, "PTPσ": {"system": "PTPσ", "conditions": "DJ001; cited from earlier work"}, "[3]": {"system": "poly-GR expressing neurons (EEA1^+ early endosome)", "assay": "EEA1 immunofluorescence staining in i^3Neurons", "type": "cell-based, human", "conditions": "DJ001 3.7 μM; 3-days GR50 i^3Neurons", "source_text": "During early endosome formation, Rab5 recruits EEA1 to the early endosomal membrane via local PI3P, thus EEA1 expression is considered a secondary indicator of PI3P level. […] EEA1^+ endosome formation was increased upon knocking down PTPσ in poly-GR expressing neurons (FIGS. 2C-2D).\nCell survival assay. I'Neurons were infected with lentivirus to transduce GR50, PR50, BFP or GFP expression in the cells on day 5, day 7, day 9 or day 11 depending on the experimental timeline. For inducible DPRs, the virus was added to neurons on differentiation day 6. The expression was initiated by adding Dox to the differentiation medium (induction day 1). […]\nConfocal microscopy and image quantification. […] For GFP-2×FYVE florescence intensity quantification, at least 6 images were taken for each replica with more than 30 neurons. […] The fluorescence intensity of the region of interest was measured and then minus the background intensity. For the quantification of EEA1^+ and LAMP1^+ puncta, EEA1 or LAMP1 channel was merged with MAP2. The puncta within MAP2 region were counted and compared among groups. For the quantification in mouse brains, at least 6 serial sections were imaged to quantify the number of neurons, astrocyte, and microglia in mouse brains. For glutamate-induced neurotoxicity assays, 5 images of PI staining will be taken at 20× for each well to quantify dead neurons. […]"}, "PIKFYVE": {"system": "PIKFYVE", "conditions": "YM-201636; cited from earlier work"}, "C9-iPSNs": {"system": "C9-iPSNs", "assay": "Glutamate-induced excitotoxicity assay in C9 iPSNs/iMNs", "type": "cell-based, human", "conditions": "10 μM glutamate", "protocol": "Glutamate toxicity contributes to the disease onset/progression in ALS due to the loss of glutamate transporter 1 (EAAT2). […] To evaluate the effect of PTPσ knockdown to the physiology of C9-iPSNs, glutamate-induced excitotoxicity assays were performed and the percentage of cell death (PI^+) was quantified after the treatment with or without PTPσ knockdown. […] Taken together, the evidence supports PTPσ knockdown as beneficial for homeostasis of endo-lysosomal system, neuronal function, and survival in the C9-iPSNs.\nC9 patient iPSNs differentiation (iMNs differentiation). […]\nGlutamate-induced excitotoxicity assay. […] Five pairs of age and gender-matched control and C9ORF72-ALS iPSNs were analyzed.\nConfocal microscopy and image quantification. […] For GFP-2×FYVE florescence intensity quantification, at least 6 images were taken for each replica with more than 30 neurons. […] The fluorescence intensity of the region of interest was measured and then minus the background intensity. For the quantification of EEA1^+ and LAMP1^+ puncta, EEA1 or LAMP1 channel was merged with MAP2. The puncta within MAP2 region were counted and compared among groups. For the quantification in mouse brains, at least 6 serial sections were imaged to quantify the number of neurons, astrocyte, and microglia in mouse brains. […] At least 500 cells from each biological replicate will be counted for statistical comparison."}},
  "data": [
    {"smiles": "O=C(/C=C\\Nc1cccc([N+](=O)[O-])c1)c1ccccc1", "note": "[DJ001, (Z)-3-((3-nitrophenyl)amino)-1-phenylprop-2-en-1-one]", "values": [
      {"measurement": "poly-GR expressing neuron survival", "setting": "[1]; DJ001 3.7 μM, GR50 i^3Neurons", "result": "improves"},
      {"measurement": "hematopoietic stem cell regeneration", "setting": "hematopoietic stem cell", "result": "can promote hematopoietic stem cell regeneration"},
      {"measurement": "poly-PR expressing neuron survival", "setting": "[2]; DJ001, PR50 i^3Neurons", "result": "improves"},
      {"measurement": "specificity of PTPσ inhibition", "setting": "PTPσ", "result": "highly specific inhibitor"},
      {"measurement": "formation of EEA1^+ early endosome", "setting": "[3]", "result": "significantly increased"}
    ]},
    {"smiles": "CC(C)(O)CNc1ncc(-c2ccnc(Nc3ccnc(Cl)c3)n2)c(CC2CC2)n1", "note": "[VPS34-IN1]", "values": [
      {"measurement": "rescue effect of PTPσ knockdown on GR50 neuron survival", "setting": "[1]; VPS34-IN1 0.5 μM, 2 days, PTPσ knockdown GR50 i^3Neurons", "result": "completely diminished"},
      {"measurement": "rescue by PTPσ knockdown, PR50 neurons", "setting": "[2]; VPS34 inhibitor, PTPσ knockdown PR50 neurons", "result": "abolished"}
    ]},
    {"smiles": "Nc1ccc(C(=O)Nc2cccc(-c3nc(N4CCOCC4)c4oc5ncccc5c4n3)c2)cn1", "note": "[YM-201636]", "values": [
      {"measurement": "PI3P levels via inhibition of PI3P to PI(3,5)P2 conversion", "setting": "PIKFYVE", "result": "can boost PI3P levels"},
      {"measurement": "rescue effect in poly-GR expressing neurons (survival)", "setting": "[1]; YM-201636 0.5 μM, GR50 i^3Neurons", "result": "robust rescue effect"}
    ]},
    {"smiles": "N[C@@H](CCC(=O)O)C(=O)O", "note": "[glutamate]", "values": [
      {"measurement": "PI^+ dead cells in control shRNA C9-iPSNs", "setting": "C9-iPSNs", "result": "increased"}
    ]}
  ]
}
